According to ChEMBL document CHEMBL1141627, “A cell-penetrating peptidic GRP78 ligand for tumor cell-specific prodrug therapy” (Bioorg Med Chem Lett, 2008):
Positions of bridges follow the written chain, without caps; N, C: chain ends. Non-standard residues stand in square brackets, D forms with d. Residues, ends and D or L forms follow the SMILES beside them. *: point of attachment. X1 = CC(=O)O[C@H]1C(=O)[C@@]2(C)[C@H]([C@H](OC(=O)c3ccccc3)[C@]3(O)C[C@H](OC(=O)[C@H](OC(=O)OCc4ccc(N*)cc4)[C@@H](NC(=O)c4ccccc4)c4ccccc4)C(C)=C1C3(C)C)[C@]1(OC(C)=O)CO[C@@H]1C[C@@H]2O; Cit = NC(=O)NCCC[C@H](N)C(=O)O

Tested on: SJSA-1
Test: Cytotoxicity against human SJSA1 cells expressing GRP78 after 6 hrs by MTT assay
Type: functional, cell-based
Conditions: SJSA-1, 6 h

Point of comparison: `CC(=O)N[C@H]1CSSC[C@@H](C(=O)N[C@H](C(=O)N[C@@H](CCCNC(N)=O)C(=O)N[C@H](C(=O)N[C@@H](CCCNC(N)=O)C(=O)Nc2ccc(COC(=O)O[C@@H](C(=O)O[C@H]3C[C@@]4(O)[C@@H](OC(=O)c5ccccc5)[C@@H]5[C@]6(OC(C)=O)CO[C@@H]6C[C@H](O)[C@@]5(C)C(=O)[C@H](OC(C)=O)C(=C3C)C4(C)C)[C@@H](NC(=O)c3ccccc3)c3ccccc3)cc2)C(C)C)C(C)C)NC(=O)[C@H](C(C)C)NC(=O)[C@H](CCCNC(=N)N)NC(=O)[C@H](C(C)C)NC(=O)[C@H](Cc2ccc(O)cc2)NC(=O)CNC(=O)CNC(=O)[C@@H]2CCCN2C(=O)[C@H](CC(C)C)NC(=O)[C@H](C)NC(=O)[C@H](C(C)C)NC(=O)[C@H]([C@@H](C)O)NC1=O` (Ac-CTVALPGGYVRVCV[Cit]V[Cit]-X1; disulfide 1-13), IC50 1.1 nM. Against it:
- COc1cccc2c1C(=O)c1c(O)c3c(c(O)c1C2=O)C[C@@](O)(C(=O)CO)C[C@@H]3O[C@H]1C[C@H](N)[C@H](O)[C@H](C)O1 [DOXORUBICIN] — 5.6-fold higher, 6.2 nM
- CC(=O)O[C@H]1C(=O)[C@@]2(C)[C@H]([C@H](OC(=O)c3ccccc3)[C@]3(O)C[C@H](OC(=O)[C@H](O)[C@@H](NC(=O)c4ccccc4)c4ccccc4)C(C)=C1C3(C)C)[C@]1(OC(C)=O)CO[C@@H]1C[C@@H]2O [PACLITAXEL] — 2.9-fold higher, 3.2 nM
